Positions count from the first letter of the chain named. Entries after “also recorded” stand apart in the source; their conditions may differ. Where two headings read alike, the source gives them in different places.
Key:
[1] = tested on: ADP-glucose pyrophosphorylase (AGPase) variant MP-TI/SH2, maize/potato mosaic small subunit MP with the TI mutation (threonine to isoleucine at position …); assay: Kinetic and allosteric characterization of purified recombinant AGPase, forward direction (MP-TI/SH2); assay type: biochemical, maize (Zea mays) / potato tuber
Procedure: (§1) The following steps were conducted at 4° C.
(§2) The reaction was stopped by boiling for 2 min. […] NADH concentration was estimated by absorbance at 340 nm.
(§3) All other values are expressed as mean±standard deviation.

[2] = tested on: ADP-glucose pyrophosphorylase (AGPase) MP/SH2, mosaic small subunit MP (first 200 amino acids of maize BT2 and last 275 amino acids of potato tuber small …); details: for Km: forward direction, pH 7.4, 37° C.
Procedure: AGPase was desalted by using Zeba Micro Desalt Spin Columns (Pierce) before assaying. AGPase was exchanged into 50 mM HEPES, 5 mM MgCl2, 0.5 mM EDTA and 0.5 mg/mL BSA (for stability).
The reaction was stopped by boiling for 2 min. PPi was estimated by coupling the reaction to a reduction in NADH concentration using 300 μl of coupling reagent. The coupling reagent contained 25 mM imidazole pH 7.4, 4 mM MgCl2, 1 mM EDTA, 0.2 mM NADH, 0.725U aldolase, 0.4U triose phosphate isomerase, 0.6U glycerophosphate dehydrogenase, 1 mM fructose 6-phosphate and 0.8 μg of pyrophosphate dependent phosphofructokinase (PPi-PFK). […] NADH concentration was estimated by absorbance at 340 nm. PPi concentration was calculated by a standard curve developed by using various amounts of PPi instead of AGPase. […] The kinetic constants of AGPase were calculated by Prism 4.0 (Graph Pad, San Diego Calif.).
All other values are expressed as mean±standard deviation. The specific activity of AGPase in the absence of 3-PGA is expressed as a percentage of the specific activity in the presence of 10 mM of 3-PGA (mean±standard error).

[3] = target: T1, maize endosperm ADP-glucose pyrophosphorylase (AGPase) BT2/SH2, wild type small subunit BT2 complexed with wild type large subunit SH2 (Zea mays, UniProt P55241+Q947C0); assay: Kinetic and allosteric characterization of purified recombinant AGPase, forward direction (BT2/SH2); assay type: biochemical
T1 sequence (Q947C0 1-475): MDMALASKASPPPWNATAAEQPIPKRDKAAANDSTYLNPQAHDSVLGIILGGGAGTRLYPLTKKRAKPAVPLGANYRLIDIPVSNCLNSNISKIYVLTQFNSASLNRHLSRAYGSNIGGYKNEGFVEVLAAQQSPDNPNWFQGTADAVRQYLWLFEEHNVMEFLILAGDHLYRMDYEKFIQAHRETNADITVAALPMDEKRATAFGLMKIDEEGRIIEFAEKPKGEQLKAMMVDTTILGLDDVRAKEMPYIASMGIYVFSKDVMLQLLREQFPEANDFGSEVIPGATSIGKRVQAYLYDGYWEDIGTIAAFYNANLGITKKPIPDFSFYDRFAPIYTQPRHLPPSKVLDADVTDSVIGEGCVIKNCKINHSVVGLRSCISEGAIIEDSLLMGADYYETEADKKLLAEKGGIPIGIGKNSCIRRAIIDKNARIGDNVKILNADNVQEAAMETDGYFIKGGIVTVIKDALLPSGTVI
T1 sequence (P55241 46-516): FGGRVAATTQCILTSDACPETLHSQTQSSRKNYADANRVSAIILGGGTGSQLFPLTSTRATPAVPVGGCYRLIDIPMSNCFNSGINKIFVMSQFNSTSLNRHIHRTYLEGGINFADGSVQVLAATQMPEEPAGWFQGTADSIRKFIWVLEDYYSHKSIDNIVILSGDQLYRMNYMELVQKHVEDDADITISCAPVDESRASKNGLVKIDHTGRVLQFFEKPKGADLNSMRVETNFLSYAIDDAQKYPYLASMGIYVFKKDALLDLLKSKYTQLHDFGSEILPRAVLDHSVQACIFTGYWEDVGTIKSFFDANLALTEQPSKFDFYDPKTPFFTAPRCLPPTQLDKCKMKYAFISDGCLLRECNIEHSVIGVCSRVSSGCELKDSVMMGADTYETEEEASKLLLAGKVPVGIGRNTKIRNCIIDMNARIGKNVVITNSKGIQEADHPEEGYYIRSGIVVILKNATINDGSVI
Procedure: as §1, §2, §3

[4] = target: T2, maize endosperm ADP-glucose pyrophosphorylase (AGPase) variant BT2-TI/SH2, small subunit BT2 with Thr462 to Ile (TI, SEQ ID NO:2) complexed with wild type SH2 (Zea mays, UniProt P55241+Q947C0, T462I); assay: Kinetic and allosteric characterization of purified recombinant AGPase, forward direction (BT2-TI/SH2); assay type: biochemical
T2 sequence (Q947C0 1-475 T462I): T1 sequence (Q947C0 1-475) with T462I
T2 sequence (P55241 46-516): T1 sequence (P55241 46-516)
Procedure: as §1, §2
A mutant Bt2 library was created by error-prone PCR. The mutational load was ˜2 non-synonymous mutations per clone (Georgelis et al. 2007). The mutants were expressed in E. coli along with a wildtype Sh2 gene. Approximately 50,000 colonies were screened for glycogen production. Ten dark staining colonies were picked. The two darkest staining Bt2 mutants were sequenced. Both had the same non-synonymous mutation resulting in a change of amino acid 462 from threonine to isoleucine (TI). The threonine in that position is absolutely conserved among the higher plant small subunits (data not shown).
Ki's are expressed as mean (95% confidence interval). All other values are expressed as mean±standard deviation.

[5] = tested on: ADP-glucose pyrophosphorylase (AGPase) MP/SH2, mosaic small subunit MP (first 200 amino acids of maize BT2 and last 275 amino acids of potato tuber small …); details: MP/SH2 compared to wildtype BT2/SH2; Cross et al., 2004; Boehlein et al., 2005; cited from earlier work
SH2 = target: T3, SH2 (Zea mays, UniProt P55241); assay: Yeast two hybrid, quantitative β-galactosidase assay of subunit-subunit interactions; assay type: cell-based, maize; details: SH2 as bait, small subunit as prey; listed as TI
T3 construct: expressed in transfected cells
T3 sequence (P55241 46-516): T1 sequence (P55241 46-516)
Procedure: Yeast transformations and a β-galactosidase assay were conducted as described by Greene and Hannah (1998b). The only modification was the use of pGBKT7 and pGADT7 as vectors for the bait and the prey respectively. pGBKT7-53 and pGADT7-T plasmids were used as a positive control.

maize endosperm AGPase = assay: Kinetic characterization of purified recombinant AGPase variants, forward direction; assay type: biochemical; details: compared to BT2/SH2
Procedure: as §1, §2, §3

E. coli cells = assay: Glycogen produced by E. coli cells expressing AGPase subunits; assay type: cell-based; details: subunit expressed with SH2 or alone (homotetramer)
Source text: A bacterial expression system (Iglesias et al., 1993) allowed us to randomly mutagenize maize endosperm AGPase genes and score AGPase activity in a fast and efficient way by exposing plates to iodine vapors as described below. The E. coli system is ideal for studying plant AGPases for a number of reasons discussed in Georgelis et al. (2007).
Glycogen synthesis was detected by production of brown staining colonies following exposure to iodine vapors. […] (Govons et al., 1969). The colonies were exposed to iodine vapors for 1 min. […] AGPase variants staining darker than wildtype were selected for further study.
Glycogen quantitation was performed by phenol reaction (Hanson and Phillips, 1981). In brief, glycogen was extracted from 1.6 ml of E. coli cells (OD600=2.0) grown in LB containing 2% w/v glucose by boiling for 3 hours in 50% w/v KOH. Glycogen was then precipitated by adding ethanol to 70% v/v and centrifuging at 10000×g for 10 min. After pellet drying, 200 μl de-ionized water, 200 μl of 5% w/v phenol and 1 mL of concentrated sulfuric acid were added. Glycogen was estimated by the absorbance at 488 nm.

[6] = varying ATP, G-1-P saturating (2 mM), mean±standard deviation
[7] = 1 mM ATP, 2 mM G-1-P, 2.5 mM 3-PGA, mean (95% confidence interval), read-out: Ki Pi
[8] = specific activity in absence of 3-PGA as percentage of that with 10 mM 3-PGA, mean±standard error

Nc1ncnc2c1ncn2[C@@H]1O[C@H](COP(=O)(O)OP(=O)(O)OP(=O)(O)O)[C@@H](O)[C@H]1O [ATP]
Km ([1]; forward direction, pH 7.4, 37° C., varying ATP, mean±standard deviation, read-out: Km ATP): 112 µM | kcat (ATP) [1, 6]: 49.031 s⁻¹ | kcat (ATP) ([2]; MP/SH2, varying ATP, G-1-P saturating (2 mM), mean±standard deviation): 69.337 s⁻¹ | Km ([2]; read-out: Km ATP, MP/SH2, varying ATP, mean±standard deviation): 133 µM | Km ([3]; read-out: Km ATP, forward direction, pH 7.4, 37° C., varying ATP, mean±standard deviation): 102 µM | kcat (ATP) [3, 6]: 43.321 s⁻¹ | kcat (ATP) ([4]; BT2-TI/SH2, varying ATP, G-1-P saturating (2 mM), mean±standard deviation): 29.112 s⁻¹ | Km (compared with BT2/SH2, in words) ([4]; BT2-TI/SH2 versus BT2/SH2): indistinguishable from BT2/SH2 | Km ([4]; read-out: Km ATP, BT2-TI/SH2, forward direction, pH 7.4, 37° C., varying ATP, mean±standard deviation): 146 µM

O=P(O)(O)O [Pi, inorganic phosphate]
Ki [1, 7]: 5.87 mM | affinity for Pi (in words) ([2]; MP/SH2 compared to BT2/SH2): decreased affinity for Pi; also recorded: a lower affinity for the inhibitor Pi | Ki ([2]; read-out: Ki Pi, MP/SH2, 1 mM ATP, 2 mM G-1-P, 2.5 mM 3-PGA, mean (95% confidence interval)): 6.61 mM | Ki [3, 7]: 2.32 mM | Ki ([4]; BT2-TI/SH2, 1 mM ATP, 2 mM G-1-P, 2.5 mM 3-PGA, mean (95% confidence interval), read-out: Ki Pi): 4.07 mM | Ki for Pi (compared with BT2/SH2, in words) ([4]; BT2-TI/SH2 versus BT2/SH2): indistinguishable from BT2/SH2

O=P(O)(O)O[C@H]1O[C@H](CO)[C@@H](O)[C@H](O)[C@H]1O [G-1-P, glucose-1-P]
Km ([1]; read-out: Km G-1-P, forward direction, pH 7.4, 37° C., varying G-1-P, mean±standard deviation): 59 µM | kcat (G-1-P) ([1]; varying G-1-P, ATP saturating (1 mM), mean±standard deviation): 42.880 s⁻¹ | kcat (G-1-P) ([2]; MP/SH2, varying G-1-P, ATP saturating (1 mM), mean±standard deviation): 62.655 s⁻¹ | Km ([2]; read-out: Km G-1-P, MP/SH2, varying G-1-P, mean±standard deviation): 79 µM | Km (compared with BT2/SH2, in words) ([4]; BT2-TI/SH2 versus BT2/SH2): indistinguishable from BT2/SH2

O=C(O)[C@H](O)COP(=O)(O)O [3-PGA]
Vmax − 3-PGA/Vmax + 3-PGA [1, 8]: (24.4 ± 5.3%) | Vmax − 3-PGA/Vmax + 3-PGA ([2]; MP/SH2, specific activity in absence of 3-PGA as percentage of that with 10 mM 3-PGA, mean±standard error): (28.2 ± 3.1%) | affinity for 3-PGA (in words) ([2]; MP/SH2 compared to BT2/SH2): increased affinity for 3-PGA; also recorded: a higher affinity for 3-PGA | affinity for 3-PGA (in words) [5]: increased affinity for 3-PGA | Vmax − 3-PGA/Vmax + 3-PGA [3, 8]: (7.2 ± 3.2%) | Ka for 3-PGA (compared with BT2/SH2, in words) ([4]; BT2-TI/SH2 versus BT2/SH2): indistinguishable from BT2/SH2

B1: BT2-TI: BT2 small subunit with change of amino acid 462 from threonine to isoleucine (protein)
chain: T1 sequence (Q947C0 1-475) with T462I
modifications: zea mays BT2 protein
notes: BT2 small subunit with change of amino acid 462 from threonine to isoleucine
strength of subunit-subunit interactions (SH2): did not increase the strength of subunit-subunit interactions; also recorded: does not strengthen the subunit-subunit interactions | kcat lower than kcat of BT2/SH2 (maize endosperm AGPase): 30%

B2: MP-TI: MP mosaic small subunit with the amino acid change of TI introduced (protein)
chain: MDMALASKASPPPWNATAAEQPIPKRDKAAANDSTYLNPQAHDSVLGIILGGGAGTRLYPLTKKRAKPAVPLGANYRLIDIPVSNCLNSNISKIYVLTQFNSASLNRHLSRAYGSNIGGYKNEGFVEVLAAQQSPDNPNWFQGTADAVRQYLWLFEEHNVMEFLILAGDHLYRMDYEKFIQAHRETNADITVAALPMDEKRATAFGLMKIDEEGRIIEFAEKPQGEQLQAMKVDTTILGLDDKRAKEMPFIASMGIYVISKDVMLNLLRDKFPGANDFGSEVIPGATSLGMRVQAYLYDGYWEDIGTIEAFYNANLGITKKPVPDFSFYDRSAPIYTQPRYLPPSKMLDADVTDSVIGEGCVIKNCKIHHSVVGLRSCISEGAIIEDSLLMGADYYETDADRKLLAAKGSVPIGIGKNCHIKRAIIDKNARIGDNVKIINKDNVQEAARETDGYFIKSGIVIVIKDALIPSGIII
modifications: zea mays MP-TI protein
notes: MP mosaic small subunit with the amino acid change of TI introduced
glycogen produced by E. coli cells (E. coli cells): yielded an equal amount of glycogen as MP/SH2
